In EP4722212A1, “NOVEL COMPOUND FOR INHIBITING PROTEIN KINASES AND PHARMACEUTICAL COMPOSITION COMPRISING SAME” (Magicbullettherapeutics Co., Ltd., priority 2023, dated 2024):
Like-named read-outs stand apart in the source and are kept apart here.

Legend:
Experiment in all cases: Kinase panel
Type in all cases: biochemical
[1] = target: JNK3 (Homo sapiens, UniProt P53779); details: JNK3, 1 µM; read-out: residual enzyme activity
Experimental: (§1) To measure the inhibitory activity of protein kinases against the compounds of the present invention, a biochemical assay was performed using a full kinase panel. The inhibitory efficacy of kinases was measured when Example compounds 8 and 51 were treated at a single concentration of 1 µM, and residual enzyme activity values were calculated. Kinases were identified when the calculated residual enzyme activity values were 40% or less, i.e., inhibited by 60% or more.

[2] = target: CDK14/CYCLIN Y (PFTK1) (Homo sapiens, UniProt O94921); details: read-out: residual enzyme activity
Experimental: as §1

[3] = target: CDK4/CYCLIN D1 (Homo sapiens, UniProt P11802); details: CDK4/cyclin D1, 1 µM; read-out: residual enzyme activity
CDK4/CYCLIN D1, sequence (P11802 whole entry, species assumed): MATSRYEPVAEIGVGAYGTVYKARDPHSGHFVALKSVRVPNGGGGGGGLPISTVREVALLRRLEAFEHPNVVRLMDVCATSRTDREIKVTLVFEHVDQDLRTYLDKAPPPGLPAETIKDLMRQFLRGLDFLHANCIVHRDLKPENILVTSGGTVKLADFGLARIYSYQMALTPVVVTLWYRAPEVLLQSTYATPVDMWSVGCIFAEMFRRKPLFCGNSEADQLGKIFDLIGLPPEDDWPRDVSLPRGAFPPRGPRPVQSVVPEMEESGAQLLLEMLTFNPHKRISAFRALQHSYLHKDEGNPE
CDK4/CYCLIN D1, sequence (P24385 whole entry partner, species assumed): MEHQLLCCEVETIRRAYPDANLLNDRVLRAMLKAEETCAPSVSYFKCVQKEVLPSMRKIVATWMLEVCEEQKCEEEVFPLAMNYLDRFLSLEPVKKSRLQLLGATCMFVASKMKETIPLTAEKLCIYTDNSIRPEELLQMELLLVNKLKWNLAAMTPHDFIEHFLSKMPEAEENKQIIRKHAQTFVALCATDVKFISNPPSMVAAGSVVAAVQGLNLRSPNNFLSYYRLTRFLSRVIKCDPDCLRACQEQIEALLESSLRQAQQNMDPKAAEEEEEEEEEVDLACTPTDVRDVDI
Experimental: as §1

[4] = target: CK2A2 (Homo sapiens, UniProt P19784); details: read-out: residual enzyme activity
Experimental: as §1

[5] = target: TSSK3/STK22C (Homo sapiens, UniProt Q96PN8); details: read-out: residual enzyme activity
Experimental: as §1

[6] = target: ULK3 (Homo sapiens, UniProt Q6PHR2); details: ULK3, 1 µM; read-out: residual enzyme activity
Experimental: as §1

[7] = target: STK38L/NDR2 (Homo sapiens, UniProt Q9Y2H1); details: STK38L/NDR2, 1 µM; read-out: residual enzyme activity
Experimental: as §1

[8] = target: PKCZETA (Homo sapiens, UniProt Q05513); details: read-out: residual enzyme activity
Experimental: as §1

[9] = target: FGFR1 (Homo sapiens, UniProt P11362); details: FGFR1, 1 µM; read-out: residual enzyme activity
FGFR1, sequence (P11362 22-822, species assumed): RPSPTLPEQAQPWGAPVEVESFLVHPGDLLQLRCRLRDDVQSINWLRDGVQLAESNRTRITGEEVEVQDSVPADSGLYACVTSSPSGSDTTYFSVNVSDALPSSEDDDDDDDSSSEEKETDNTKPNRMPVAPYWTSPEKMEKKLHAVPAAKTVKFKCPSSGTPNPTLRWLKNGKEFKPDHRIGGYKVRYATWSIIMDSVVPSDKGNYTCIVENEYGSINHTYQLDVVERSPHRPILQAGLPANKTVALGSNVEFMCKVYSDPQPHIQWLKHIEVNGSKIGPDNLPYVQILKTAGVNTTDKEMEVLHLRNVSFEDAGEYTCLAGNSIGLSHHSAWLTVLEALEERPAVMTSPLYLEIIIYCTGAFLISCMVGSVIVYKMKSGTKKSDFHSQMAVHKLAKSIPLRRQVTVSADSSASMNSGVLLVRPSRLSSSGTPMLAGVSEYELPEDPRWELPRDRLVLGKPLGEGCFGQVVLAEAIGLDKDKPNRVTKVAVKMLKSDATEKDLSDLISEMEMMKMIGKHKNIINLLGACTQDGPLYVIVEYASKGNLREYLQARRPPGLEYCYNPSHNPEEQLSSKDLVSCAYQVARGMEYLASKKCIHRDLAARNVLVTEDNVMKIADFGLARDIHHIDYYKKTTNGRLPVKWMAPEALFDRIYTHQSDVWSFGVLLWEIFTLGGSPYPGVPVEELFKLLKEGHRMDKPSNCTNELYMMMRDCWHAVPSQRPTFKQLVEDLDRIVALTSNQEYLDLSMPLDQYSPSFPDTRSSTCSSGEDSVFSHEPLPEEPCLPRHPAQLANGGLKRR
Experimental: as §1

[10] = target: CDK2/CYCLIN A1 (Homo sapiens, UniProt P24941); details: CDK2/Cyclin A1, 1 µM; read-out: residual enzyme activity
Experimental: as §1

[11] = target: GLK/MAP4K3 (Homo sapiens, UniProt Q8IVH8); details: GLK/MAP4K3, 1 µM; read-out: residual enzyme activity
Experimental: as §1

[12] = target: HCK (Homo sapiens, UniProt P08631); details: read-out: residual enzyme activity
Experimental: as §1

[13] = target: ERN2/IRE2 (Homo sapiens, UniProt Q76MJ5); details: ERN2/IRE2, 1 µM; read-out: residual enzyme activity
Experimental: as §1

[14] = target: BRSK2 (Homo sapiens, UniProt Q8IWQ3); details: BRSK2, 1 µM; read-out: residual enzyme activity
Experimental: as §1

[15] = target: NEK2 (Homo sapiens, UniProt P51955); details: NEK2, 1 µM; read-out: residual enzyme activity
NEK2, sequence (P51955 whole entry, species assumed): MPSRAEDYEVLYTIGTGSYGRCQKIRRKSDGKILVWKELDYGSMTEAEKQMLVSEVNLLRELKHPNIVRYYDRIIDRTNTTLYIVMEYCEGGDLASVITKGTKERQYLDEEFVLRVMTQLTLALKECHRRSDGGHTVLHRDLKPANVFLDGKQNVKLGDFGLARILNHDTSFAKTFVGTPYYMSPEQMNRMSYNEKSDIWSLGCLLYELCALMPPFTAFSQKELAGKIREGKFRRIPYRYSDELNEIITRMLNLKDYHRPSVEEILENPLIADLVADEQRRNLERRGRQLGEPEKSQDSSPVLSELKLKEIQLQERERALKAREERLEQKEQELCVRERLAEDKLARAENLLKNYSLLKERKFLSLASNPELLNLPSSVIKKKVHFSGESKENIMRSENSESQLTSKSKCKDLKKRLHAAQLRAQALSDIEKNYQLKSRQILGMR
Experimental: as §1

[16] = target: TGFBR2 (Homo sapiens, UniProt P37173); details: TGFBR2, 1 µM; read-out: residual enzyme activity
Experimental: as §1

[17] = target: KSR2 (Homo sapiens, UniProt Q6VAB6); details: KSR2, 1 µM; read-out: residual enzyme activity
Experimental: as §1

[18] = target: CAMK1A (Homo sapiens, UniProt Q14012); details: read-out: residual enzyme activity
Experimental: as §1

[19] = target: ZAP70 (Homo sapiens, UniProt P43403); details: ZAP70, 1 µM; read-out: residual enzyme activity
Experimental: as §1

[20] = target: PKG1A (Homo sapiens, UniProt Q13976); details: read-out: residual enzyme activity
Experimental: as §1

[21] = target: HIPK4 (Homo sapiens, UniProt Q8NE63); details: HIPK4, 1 µM; read-out: residual enzyme activity
Experimental: as §1

[22] = target: MST2/STK3 (Homo sapiens, UniProt Q13188); details: MST2/STK3, 1 µM; read-out: residual enzyme activity
Experimental: as §1

[23] = target: EPHAS (Homo sapiens, UniProt P54756); details: read-out: residual enzyme activity
Experimental: as §1

[24] = target: EPHB2 (Homo sapiens, UniProt P29323); details: EPHB2, 1 µM; read-out: residual enzyme activity
EPHB2, sequence (P29323 19-1055, species assumed): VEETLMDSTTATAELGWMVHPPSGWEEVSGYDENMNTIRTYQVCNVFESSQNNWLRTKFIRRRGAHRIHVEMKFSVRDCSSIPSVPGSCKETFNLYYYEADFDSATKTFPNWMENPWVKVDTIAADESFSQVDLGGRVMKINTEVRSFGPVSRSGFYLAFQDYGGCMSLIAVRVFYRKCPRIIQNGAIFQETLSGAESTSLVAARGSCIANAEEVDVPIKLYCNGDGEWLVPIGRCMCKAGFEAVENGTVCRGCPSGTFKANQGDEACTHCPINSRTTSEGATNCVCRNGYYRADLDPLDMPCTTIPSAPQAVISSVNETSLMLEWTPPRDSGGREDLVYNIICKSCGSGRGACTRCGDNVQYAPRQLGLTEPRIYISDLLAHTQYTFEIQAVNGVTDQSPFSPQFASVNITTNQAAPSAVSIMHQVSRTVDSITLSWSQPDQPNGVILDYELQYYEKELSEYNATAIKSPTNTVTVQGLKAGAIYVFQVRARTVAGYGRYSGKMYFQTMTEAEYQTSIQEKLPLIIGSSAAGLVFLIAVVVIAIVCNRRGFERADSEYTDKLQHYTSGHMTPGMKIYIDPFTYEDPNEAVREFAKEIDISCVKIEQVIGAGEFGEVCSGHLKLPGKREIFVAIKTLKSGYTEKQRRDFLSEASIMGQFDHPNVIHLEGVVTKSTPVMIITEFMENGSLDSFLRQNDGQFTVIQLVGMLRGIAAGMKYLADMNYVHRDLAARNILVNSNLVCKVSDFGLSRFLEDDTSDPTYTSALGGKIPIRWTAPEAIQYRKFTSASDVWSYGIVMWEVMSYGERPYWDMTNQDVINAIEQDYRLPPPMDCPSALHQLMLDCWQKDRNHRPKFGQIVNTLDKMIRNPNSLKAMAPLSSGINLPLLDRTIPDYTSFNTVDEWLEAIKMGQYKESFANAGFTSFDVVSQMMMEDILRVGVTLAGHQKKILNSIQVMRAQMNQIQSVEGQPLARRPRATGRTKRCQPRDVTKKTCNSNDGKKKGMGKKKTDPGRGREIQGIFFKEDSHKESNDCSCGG
Experimental: as §1

[25] = target: NEK1 (Homo sapiens, UniProt Q96PY6); details: NEK1, 1 µM; read-out: residual enzyme activity
NEK1, sequence (Q96PY6 whole entry, species assumed): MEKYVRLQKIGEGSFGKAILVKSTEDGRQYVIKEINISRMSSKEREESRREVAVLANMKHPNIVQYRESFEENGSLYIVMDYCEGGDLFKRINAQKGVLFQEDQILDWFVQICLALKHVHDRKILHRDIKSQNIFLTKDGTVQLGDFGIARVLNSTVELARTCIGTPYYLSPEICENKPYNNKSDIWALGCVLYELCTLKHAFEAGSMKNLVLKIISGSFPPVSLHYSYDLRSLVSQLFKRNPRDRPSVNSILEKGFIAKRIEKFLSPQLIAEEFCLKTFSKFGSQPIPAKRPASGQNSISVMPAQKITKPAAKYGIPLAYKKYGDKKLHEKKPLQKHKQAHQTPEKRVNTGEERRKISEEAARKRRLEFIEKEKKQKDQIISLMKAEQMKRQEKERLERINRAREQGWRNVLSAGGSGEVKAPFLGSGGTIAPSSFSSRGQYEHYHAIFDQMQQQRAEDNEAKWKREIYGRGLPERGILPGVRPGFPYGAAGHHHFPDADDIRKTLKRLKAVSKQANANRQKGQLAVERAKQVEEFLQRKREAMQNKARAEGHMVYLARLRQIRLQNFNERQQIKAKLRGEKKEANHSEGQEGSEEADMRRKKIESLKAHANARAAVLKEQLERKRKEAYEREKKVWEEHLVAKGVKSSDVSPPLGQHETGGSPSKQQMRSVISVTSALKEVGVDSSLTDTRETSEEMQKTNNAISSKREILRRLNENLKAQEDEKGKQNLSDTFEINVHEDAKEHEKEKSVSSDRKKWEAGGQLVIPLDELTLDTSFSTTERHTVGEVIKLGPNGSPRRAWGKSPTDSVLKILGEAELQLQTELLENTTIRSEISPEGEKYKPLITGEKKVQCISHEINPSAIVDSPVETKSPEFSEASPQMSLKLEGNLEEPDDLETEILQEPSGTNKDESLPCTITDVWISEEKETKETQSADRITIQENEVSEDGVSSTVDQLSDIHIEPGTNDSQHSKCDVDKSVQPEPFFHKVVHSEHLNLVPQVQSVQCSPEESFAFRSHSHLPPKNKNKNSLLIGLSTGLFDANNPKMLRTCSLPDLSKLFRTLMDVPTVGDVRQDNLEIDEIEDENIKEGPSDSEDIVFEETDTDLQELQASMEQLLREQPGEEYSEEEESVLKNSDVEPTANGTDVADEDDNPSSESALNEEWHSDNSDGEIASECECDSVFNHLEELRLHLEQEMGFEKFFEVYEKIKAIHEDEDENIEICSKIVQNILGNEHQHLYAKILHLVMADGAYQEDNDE
Experimental: as §1

[26] = target: C-MET (Homo sapiens, UniProt P08581); details: read-out: residual enzyme activity
Experimental: as §1

[27] = target: CKIG3 (Homo sapiens, UniProt Q9Y6M4); details: CKIG3, 1 µM; read-out: residual enzyme activity
Experimental: as §1

[28] = target: CDK3/CYCLIN E (Homo sapiens, UniProt Q00526); details: read-out: residual enzyme activity
Experimental: as §1

[29] = target: MYO3A (Homo sapiens, UniProt Q8NEV4); details: read-out: residual enzyme activity
Experimental: as §1

[30] = target: PKACB (Homo sapiens, UniProt P22694); details: read-out: residual enzyme activity
Experimental: as §1

[31] = target: HPK1/MAP4K1 (Homo sapiens, UniProt Q92918); details: HPK1/MAP4K1, 1 µM; read-out: residual enzyme activity
Experimental: as §1

[32] = target: MYLK3 (Homo sapiens, UniProt Q32MK0); details: MYLK3, 1 µM; read-out: residual enzyme activity
MYLK3, sequence (Q32MK0 whole entry, species assumed): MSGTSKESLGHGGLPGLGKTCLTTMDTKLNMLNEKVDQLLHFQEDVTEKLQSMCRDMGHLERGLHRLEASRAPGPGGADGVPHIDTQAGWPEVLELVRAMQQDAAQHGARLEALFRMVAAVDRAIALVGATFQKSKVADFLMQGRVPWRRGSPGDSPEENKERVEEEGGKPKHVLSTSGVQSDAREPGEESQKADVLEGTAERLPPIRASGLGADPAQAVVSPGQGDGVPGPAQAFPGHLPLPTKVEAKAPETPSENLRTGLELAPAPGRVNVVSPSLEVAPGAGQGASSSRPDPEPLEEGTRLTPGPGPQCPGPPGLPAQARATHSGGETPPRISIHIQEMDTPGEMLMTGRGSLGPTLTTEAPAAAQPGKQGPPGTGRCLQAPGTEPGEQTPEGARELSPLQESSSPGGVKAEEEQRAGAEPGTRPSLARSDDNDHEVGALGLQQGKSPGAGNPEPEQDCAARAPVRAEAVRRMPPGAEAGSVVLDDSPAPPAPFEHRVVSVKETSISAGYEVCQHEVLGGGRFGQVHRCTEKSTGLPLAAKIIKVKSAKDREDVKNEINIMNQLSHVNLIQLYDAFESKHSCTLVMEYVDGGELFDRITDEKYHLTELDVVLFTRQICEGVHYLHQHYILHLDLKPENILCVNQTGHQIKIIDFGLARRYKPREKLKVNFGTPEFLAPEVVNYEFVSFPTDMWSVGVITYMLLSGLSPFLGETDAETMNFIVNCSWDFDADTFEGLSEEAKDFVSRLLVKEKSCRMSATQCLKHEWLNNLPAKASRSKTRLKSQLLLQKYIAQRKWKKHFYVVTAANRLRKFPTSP
Experimental: as §1

[33] = target: CLK4 (Homo sapiens, UniProt Q9HAZ1); details: CLK4, 1 µM; read-out: residual enzyme activity
Experimental: as §1

SMILES | remaining activity at 1 µM [1] [%] | remaining activity at 1 µM [2] [%] | remaining activity at 1 µM [3] [%] | remaining activity at 1 µM [5] [%] | remaining activity at 1 µM [6] [%] | remaining activity at 1 µM [7] [%] | remaining activity at 1 µM [8] [%] | remaining activity at 1 µM [9] [%] | remaining activity at 1 µM [10] [%] | remaining activity at 1 µM [11] [%] | remaining activity at 1 µM [12] [%] | remaining activity at 1 µM [13] [%] | remaining activity at 1 µM [14] [%] | remaining activity at 1 µM [15] [%] | remaining activity at 1 µM [16] [%] | remaining activity at 1 µM [17] [%] | remaining activity at 1 µM [19] [%] | remaining activity at 1 µM [21] [%] | remaining activity at 1 µM [22] [%] | remaining activity at 1 µM [24] [%] | further results
Cc1ccc(Nc2ncc3c(n2)C2(CC2)C(=O)N(c2cc(NC(=O)c4cccc(C(F)(F)F)c4)ccc2C)C3)cn1 [Compound 51, N-(4-methyl-3-(2'-((6-methylpyridin-3-yl)amino)-7'-oxo-5'H-spiro[cyclopropane-1,8'-pyrido[4,3-d]pyrimidine]-6'(7'H)-yl)phenyl)-3-(trifluoromethyl)benzamide] | ≤ 40 | > 40 | > 40 | > 40 | > 40 | > 40 | > 40 | ≤ 40 | > 40 | ≤ 40 | ≤ 40 | > 40 | > 40 | > 40 | > 40 | > 40 | > 40 | ≤ 40 | > 40 | ≤ 40 | remaining activity at 1 µM ([4]; CK2a2, 1 µM): > 40%; remaining activity at 1 µM ([18]; CAMKla): > 40%; remaining activity at 1 µM ([20]; PKGla): > 40%; remaining activity at 1 µM ([23]; EPHA5, 1 µM): ≤ 40%; remaining activity at 1 µM [25]: > 40%; remaining activity at 1 µM ([26]; c-MET): > 40%; remaining activity at 1 µM [27]: > 40%; remaining activity at 1 µM [28]: > 40%; remaining activity at 1 µM [29]: > 40%; remaining activity at 1 µM [30]: > 40%; remaining activity at 1 µM [31]: ≤ 40%; remaining activity at 1 µM [32]: > 40%; remaining activity at 1 µM [33]: > 40%
Cc1cn(-c2cc(C(=O)Nc3ccc(C)c(N4Cc5cnc(NC6CC6)nc5C5(CC5)C4=O)c3)cc(C(F)(F)F)c2)cn1 [Compound 8, N-(3-(2'-(cyclopropylamino)-7'-oxo-5'H-spiro[cyclopropane-1,8'-pyrido[4,3-d]pyrimidine]-6'(7'H)-yl)-4-methylphenyl)-3-(4-methyl-1H-imidazol-1-yl)-5-(trifluoromethyl)benzamide] | > 40 | > 40 | > 40 | > 40 | > 40 | > 40 | > 40 | ≤ 40 | > 40 | ≤ 40 | ≤ 40 | > 40 | > 40 | > 40 | > 40 | > 40 | > 40 | > 40 | > 40 | ≤ 40 | remaining activity at 1 µM ([4]; CK2A2, 1 µM): > 40%; remaining activity at 1 µM ([18]; CAMK1A): > 40%; remaining activity at 1 µM ([20]; PKG1A): > 40%; remaining activity at 1 µM ([23]; EPHAS (row 107), 1 µM): ≤ 40%; remaining activity at 1 µM [25]: > 40%; remaining activity at 1 µM ([26]; C-MET): > 40%; remaining activity at 1 µM [27]: > 40%; remaining activity at 1 µM [28]: > 40%; remaining activity at 1 µM [29]: > 40%; remaining activity at 1 µM [30]: > 40%; remaining activity at 1 µM [31]: ≤ 40%; remaining activity at 1 µM [32]: > 40%; remaining activity at 1 µM [33]: > 40%
